# From patent US10906890B2, “Triazole phenyl compounds as agonists of the APJ receptor” (AMGEN INC., priority 2016, dated 2021)
# Molecular target: human APJ receptor (Homo sapiens (Human), UniProt P35414)
# Experiment: [35S]GTPγS binding assay on membranes from CHO cells stably expressing human APJ receptor
# Assay type: biochemical
# Conditions: means of several independent experiments, read-out: Activity hAPJ SPA EC50 IP
# Experimental: The human APJ receptor was cloned by polymerase chain reaction and the gene encoding the receptor was subcloned in pFLAG-CMV™-3 expression vector (Sigma, Saint Louis, Mo. USA) in-house at Amgen. A GTPγS binding assay was performed on membranes prepared from CHO cells stably expressing human APJ receptor. The optimum experimental conditions for the concentrations of GDP, MgCl2, and NaCl in the assay buffer were initially determined. […] Incubation was at RT for 90 min and the microplate was read using a ViewLux™ ultra HTS Microplate Imager (PerkinElmer, Inc.). All the results presented are means of several independent experiments and analyzed by non-linear regression methods using the commercially available program Prism (GraphPad, San Diego, Calif.) providing the EC50 values detailed in Table 28.
# Sequence of human APJ receptor (P35414 whole entry): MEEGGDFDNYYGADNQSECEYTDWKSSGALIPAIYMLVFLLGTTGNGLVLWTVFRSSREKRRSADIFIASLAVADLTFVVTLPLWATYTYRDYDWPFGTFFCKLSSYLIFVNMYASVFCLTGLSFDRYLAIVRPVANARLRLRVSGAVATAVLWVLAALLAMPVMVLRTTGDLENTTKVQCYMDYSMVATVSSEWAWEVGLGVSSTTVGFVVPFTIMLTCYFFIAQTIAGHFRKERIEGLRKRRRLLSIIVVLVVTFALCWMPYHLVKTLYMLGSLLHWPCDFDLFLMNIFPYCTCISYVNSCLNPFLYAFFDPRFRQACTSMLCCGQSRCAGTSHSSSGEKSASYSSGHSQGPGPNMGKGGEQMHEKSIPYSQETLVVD
row,Compound,EC50 [µM]
1,"COc1ncnc(OC)c1-n1c(NS(=O)(=O)[C@H]2CCCN(c3ncc(Cl)cn3)C2)nnc1-c1ccccc1 (single isomer, unassigned) [Example 32.0, (3S)-1-(5-chloro-2-pyrimidinyl)-N-(4-(4,6-dimethoxy-5-pyrimidinyl)-5-phenyl-4H-1,2,4-triazol-3-yl)-3-piperidinesulfonamide or (3R)-1-(5-chloro-2-pyrimidinyl)-N-(4-(4,6-dimethoxy-5-pyrimidinyl)-5-phenyl-4H-1,2,4-triazol-3-yl)-3-piperidinesulfonamide]",0.017
2,"COc1cccc(OC)c1-n1c(NS(=O)(=O)[C@@H](C)[C@H](OC)c2ncc(C)cn2)nnc1-c1cccc(C#N)c1 [Example 86.0, (1R,2S)-N-(5-(3-cyanophenyl)-4-(2,6-dimethoxyphenyl)-4H-1,2,4-triazol-3-yl)-1-methoxy-1-(5-methyl-2-pyrimidinyl)-2-propanesulfonamide]",0.0106
3,COc1ccccc1-c1nnc(NS(=O)(=O)[C@@H](C)[C@H](OC)c2ncc(Cl)cn2)n1[C@@H]1CCCOC1 [Example 118.0],0.18
4,"COc1cccc(OC)c1-n1c(NS(=O)(=O)[C@@H](C)[C@H](OC)c2ncc(C)cn2)nnc1-c1ccc2c(c1)OC(F)(F)O2 [Example 39.0, (1R,2S)-N-(5-(2,2-difluoro-1,3-benzodioxol-5-yl)-4-(2,6-dimethoxyphenyl)-4H-1,2,4-triazol-3-yl)-1-methoxy-1-(5-methyl-2-pyrimidinyl)-2-propanesulfonamide]",0.16
5,"COc1ccnc(OC)c1-n1c(NS(=O)(=O)[C@@H](C)[C@H](C)c2cnc(C)cn2)nnc1-c1ccccc1 (single isomer, unassigned) [Example 54.0, (2S,3R,P)-N-(4-(2,4-dimethoxy-3-pyridinyl)-5-phenyl-4H-1,2,4-triazol-3-yl)-3-(5-methyl-2-pyrazinyl)-2-butanesulfonamide or (2S,3R,M)-N-(4-(2,4-dimethoxy-3-pyridinyl)-5-phenyl-4H-1,2,4-triazol-3-yl)-3-(5-methyl-2-pyrazinyl)-2-butanesulfonamide]",0.014
6,"COc1ncnc(OC)c1-n1c(NS(=O)(=O)[C@@H](C)[C@H](OC)c2ncc(C)cn2)nnc1-c1cccc(C#N)c1 [Example 2.0, (1R,2S)-N-(5-(3-cyanophenyl)-4-(4,6-dimethoxypyrimidin-5-yl)-4H-1,2,4-triazol-3-yl)-1-methoxy-1-(5-methylpyrimidin-2-yl)propane-2-sulfonamide]",0.11
7,"COc1cccc(OC)c1-n1c(NS(=O)(=O)[C@@H](C)[C@H](OC)c2ncc(C)cn2)nnc1-c1ccc(Cl)cc1Cl [Example 71.0, (1R,2S)-N-(5-(2,4-dichlorophenyl)-4-(2,6-dimethoxyphenyl)-4H-1,2,4-triazol-3-yl)-1-methoxy-1-(5-methyl-2-pyrimidinyl)-2-propanesulfonamide]",0.16
8,"C[C@H](c1ncc(C#N)cn1)[C@H](C)S(=O)(=O)Nc1nnc(-c2ccccc2)n1-c1c(F)cccc1F [Example 47.0, (2S,3R)-3-(5-cyano-2-pyrimidinyl)-N-(4-(2,6-difluorophenyl)-5-phenyl-4H-1,2,4-triazol-3-yl)-2-butanesulfonamide]",0.048
9,COc1ncnc(OC)c1-n1c(NS(=O)(=O)[C@@H](C)[C@H](OC)c2ncc(C)cn2)nnc1-c1cccc2cn(C)nc12 [Example 93.0],0.041
10,COCC(COC)n1c(NS(=O)(=O)[C@@H](C)[C@@H](OC(C)C)c2ncc(Cl)cn2)nnc1-c1ccccc1 [Example 123.0],0.0072
11,"COc1cccc(OC)c1-n1c(NS(=O)(=O)[C@@H](C)[C@H](OC)c2ncc(C)cn2)nnc1-c1ccccc1 [Example 77.0, (1R,2S)-N-(4-(2,6-dimethoxyphenyl)-5-phenyl-4H-1,2,4-triazol-3-yl)-1-methoxy-1-(5-methyl-2-pyrimidinyl)-2-propanesulfonamide]",0.001
12,"COc1cccc(OC)c1-n1c(NS(=O)(=O)[C@@H](C)[C@H](OC)c2ncc(C)cn2)nnc1-c1cccc(F)c1 [Example 85.0, (1R,2S)—N-(4-(2,6-Dimethoxyphenyl)-5-(3-fluorophenyl)-4H-1,2,4-triazol-3-yl)-1-methoxy-1-(5-methyl-2-pyrimidinyl)-2-propanesulfonamide]",0.00092
13,COc1ncnc(OC)c1-n1c(NS(=O)(=O)[C@@H](C)[C@H](C)c2ccc(Cl)cn2)nnc1-c1ccccc1 [Example 127.0],0.00096
14,"COc1ncnc(OC)c1-n1c(NS(=O)(=O)[C@H]2CCCN(c3ncc(F)cn3)C2)nnc1-c1ccccc1 (single isomer, unassigned) [Example 28.0, (3S)-N-(4-(4,6-dimethoxy-5-pyrimidinyl)-5-phenyl-4H-1,2,4-triazol-3-yl)-1-(5-fluoro-2-pyrimidinyl)-3-piperidinesulfonamide or (3R)-N-(4-(4,6-dimethoxy-5-pyrimidinyl)-5-phenyl-4H-1,2,4-triazol-3-yl)-1-(5-fluoro-2-pyrimidinyl)-3-piperidinesulfonamide]",0.41
15,"CO[C@H]1CCC[C@@H](OC)[C@@H]1n1c(NS(=O)(=O)[C@@H](C)[C@H](C)c2ncc(C)cn2)nnc1-c1ccccc1 [Example 33.0, (2S,3R)—N-(4-((1r,2R,6S)-2,6-Dimethoxycyclohexyl)-5-phenyl-4H-1,2,4-triazol-3-yl)-3-(5-methyl-2-pyrimidinyl)-2-butanesulfonamide]",0.23
16,"COc1ncnc(OC)c1-n1c(NS(=O)(=O)[C@@H](C)Cc2ncc(F)cn2)nnc1-c1ccccc1 (single isomer, unassigned) [Example 9.0, (2S)-N-(4-(4,6-dimethoxy-5-pyrimidinyl)-5-phenyl-4H-1,2,4-triazol-3-yl)-1-(5-fluoro-2-pyrimidinyl)-2-propanesulfonamide or (2R)-N-(4-(4,6-dimethoxy-5-pyrimidinyl)-5-phenyl-4H-1,2,4-triazol-3-yl)-1-(5-fluoro-2-pyrimidinyl)-2-propanesulfonamide]",0.04
17,"COc1cccc(OC)c1-n1c(NS(=O)(=O)[C@@H](C)[C@H](OC)c2ncc(C)cn2)nnc1-c1ccc(F)c(F)c1 [Example 72.0, (1R,2S)-N-(5-(3,4-difluorophenyl)-4-(2,6-dimethoxyphenyl)-4H-1,2,4-triazol-3-yl)-1-methoxy-1-(5-methyl-2-pyrimidinyl)-2-propanesulfonamide]",0.0045
18,"COc1ncnc(OC)c1-n1c(NS(=O)(=O)CCc2ccc(F)cc2C#N)nnc1-c1ccccc1 [Example 10.0, 2-(2-cyano-4-fluorophenyl)-N-(4-(4,6-dimethoxy-5-pyrimidinyl)-5-phenyl-4H-1,2,4-triazol-3-yl)ethanesulfonamide]",0.042
19,"COc1cccc(OC)c1-n1c(NS(=O)(=O)[C@@H](C)[C@H](OC)c2ncc(C)cn2)nnc1-c1cccc(Cl)c1 [Example 87.0, (1R,2S)-N-(5-(3-chlorophenyl)-4-(2,6-dimethoxyphenyl)-4H-1,2,4-triazol-3-yl)-1-methoxy-1-(5-methyl-2-pyrimidinyl)-2-propanesulfonamide]",0.00056
20,"COc1cccc(OC)c1-n1c(NS(=O)(=O)[C@@H](C)[C@H](OC)c2ncc(C)cn2)nnc1-c1cccc(S(=O)(=O)N(C)C)c1 [Example 73.0, 3-(4-(2,6-dimethoxyphenyl)-5-((((1S,2R)-2-methoxy-1-methyl-2-(5-methyl-2-pyrimidinyl)ethyl)sulfonyl)amino)-4H-1,2,4-triazol-3-yl)-N,N-dimethylbenzenesulfonamide]",0.031
